From patent US20250171432A1, “COMPOUNDS AND METHODS OF USE” (Tango Therapeutics, Inc., priority 2022, published 2025)

Assays:
Assay type in all cases: cell-based
[1] = system: SDMA (PRMT5 activity) in HAP1 MTAP-intact cell line; assay: SDMA in-cell western assay, HAP1 MTAP-intact; settings: SDMA in-cell western, HAP1 MTAP-intact cells, 24 hours compound incubation
[2] = system: SDMA (PRMT5 activity) in HAP1 MTAP-deleted cell line; assay: SDMA in-cell western assay, HAP1 MTAP-deleted; settings: for IC50 / IC90: SDMA in-cell western, HAP1 MTAP-deleted cells, 24 hours compound incubation; for Hap1 MTAP intact/deleted ratio: ratio of SDMA IC50 in HAP1 MTAP-intact to HAP1 MTAP-deleted cell line
[3] = system: HAP1 MTAP-deleted cell line; assay: Viability assay (CellTiter-Glo), HAP1 MTAP-deleted; settings: HAP1 MTAP-deleted cells, 7 days
Outline: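 HAP1 MTAP-deleted and MTAP-intact cells seeded, then dosed next day (n=3, 0.2% DMSO) and grown 7 days. Viability by CellTiter-Glo luminescence, expressed as % of DMSO control per cell line.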

IC50 ([1]; Homo sapiens, HAP1, 24 h) [nM]	IC50 ([2]; Homo sapiens) [nM]	IC90 ([2]; Homo sapiens) [nM]	IC50 [1] [nM]	IC50 [2] [nM]	IC90 [2] [nM]	SMILES	Hap1 MTAP intact/deleted ratio [2]	IC50 ([3]; Homo sapiens, 168 h) [nM]	IC50 ([1]; Homo sapiens) [nM]	IC50 [3] [nM]
> 50	< 5	< 75				COc1ncc(NC(=O)C(=O)N2C[C@@H](C)CC[C@@H]2c2ccc3sc([C@@H]4CCN(C)C[C@@H]4C)nc3c2)cc1C(N)=O (relative stereo) [Compound 12, 2-methoxy-5-[[2-oxo-2-[(2R,5S)-5-methyl-2-[2-[rel-(3R,4R)-1,3-dimethyl-4-piperidyl]-1,3-benzothiazol-5-yl]-1-piperidyl]acetyl]amino]pyridine-3-carboxamide]	A (“A” indicates an IC50 ratio greater than or equal to 30 fold)	< 100		
5 to 50	< 5	< 75				CCc1cc(NC(=O)C(=O)N2C[C@@H](C)CC[C@@H]2c2ccc3sc([C@@H]4CCN(C)CC4(C)C)nc3c2)cnc1N [Compound 79, N-(6-amino-5-ethylpyridin-3-yl)-2-((5S)-5-methyl-2-(2-(1,3,3-trimethylpiperidin-4-yl)benzo[d]thiazol-5-yl)piperidin-1-yl)-2-oxoacetamide]	C (“C” indicates an IC50 ratio of less than 15 fold)	< 100		
> 50	5 to 50	> 125				CCc1cc(NC(=O)C(=O)N2C[C@@H](C)CC[C@@H]2c2ccc(F)c(OCCN(C)C)c2)cnc1N [Compound 128, N-(6-amino-5-ethylpyridin-3-yl)-2-((2R,5S)-2-(3-(2-(dimethylamino)ethoxy)-4-fluorophenyl)-5-methylpiperidin-1-yl)-2-oxoacetamide]	A (“A” indicates an IC50 ratio greater than or equal to 30 fold)	< 100		
> 50	< 5	< 75				COc1ncc(NC(=O)C(=O)N2C[C@@H](C)CC[C@@H]2c2ccc3sc(C4CN(C)C(C)(C)C4)nc3c2)cc1C(N)=O (mixture of isomers) [Compound 77, 2-methoxy-5-(2-((2R,5S)-5-methyl-2-(2-(1,5,5-trimethylpyrrolidin-3-yl)benzo[d]thiazol-5-yl)piperidin-1-yl)-2-oxoacetamido)nicotinamide]	A (“A” indicates an IC50 ratio greater than or equal to 30 fold)	< 100		
> 50	< 5	< 75				CCc1cc(NC(=O)C(=O)N2C[C@@H](C)CC[C@@H]2c2ccc3sc([C@@H]4C[C@@H]5CN(C)C[C@@H]5C4)nc3c2)cnc1N (single isomer, unassigned) [Compound 111]	B (“B” indicates an IC50 ratio greater than or equal to 15 fold but lower than 30 fold)	< 100		
5 to 50	< 5	< 75				CCc1cc(NC(=O)C(=O)N2C[C@@H](C)CC[C@@H]2c2ccc3sc(C4CN(C)C(C)(C)C4)nc3c2)cnc1N (mixture of isomers) [Compound 13, N-(6-amino-5-ethylpyridin-3-yl)-2-((2R,5S)-5-methyl-2-(2-(1,5,5-trimethylpyrrolidin-3-yl)benzo[d]thiazol-5-yl)piperidin-1-yl)-2-oxoacetamide]	C (“C” indicates an IC50 ratio of less than 15 fold)	< 100		
5 to 50	< 5	< 75				CCc1cc(NC(=O)C(=O)N2C[C@@H](C)CC[C@@H]2c2ccc3sc([C@@H]4C[C@@H](C)CN(C)C4)nc3c2)cnc1N (relative stereo) [Compound 23, N-(6-amino-5-ethylpyridin-3-yl)-2-((2R,5S)-2-(2-(1,5-dimethylpiperidin-3-yl)benzo[d]thiazol-5-yl)-5-methylpiperidin-1-yl)-2-oxoacetamide]	B (“B” indicates an IC50 ratio greater than or equal to 15 fold but lower than 30 fold)	< 100		
> 50	< 5	< 75				CCc1cc(NC(=O)C(=O)N2C[C@@H](C)CC[C@@H]2c2ccc3sc([C@@H]4C[C@@H](C)N(C)C4)nc3c2)cnc1N (mixture of isomers) [Compound 4, N-(6-amino-5-ethyl-3-pyridyl)-2-oxo-2-[(2R,5S)-5-methyl-2-[2-[rac-(3R,5R)-1,5-dimethylpyrrolidin-3-yl]-1,3-benzothiazol-5-yl]-1-piperidyl]acetamide]	A (“A” indicates an IC50 ratio greater than or equal to 30 fold)	< 100		
> 50	< 5	< 75				COc1ncc(NC(=O)C(=O)N2C[C@@H](C)CC[C@@H]2c2ccc3sc([C@H]4C[C@@H]5CN(C)C[C@@H]5C4)nc3c2)cc1C(N)=O (single isomer, unassigned) [Compound 67]	A (“A” indicates an IC50 ratio greater than or equal to 30 fold)	< 100		
			5 to 50	< 5	< 75	CCc1cc(NC(=O)C(=O)N2C[C@@H](C)CC[C@@H]2c2ccc3sc(C(C)CN4CCCC4)nc3c2)cnc1N (single isomer, unassigned) [Compound 106]	B (“B” indicates an IC50 ratio greater than or equal to 15 fold but lower than 30 fold)			< 100
> 50	5 to 50	> 125				CCc1cc(NC(=O)C(=O)N2C[C@@H](C)CC[C@@H]2c2ccc3ccc(C#N)nc3c2)cnc1N [Compound 32, N-(6-amino-5-ethylpyridin-3-yl)-2-((2R,5S)-2-(2-cyanoquinolin-7-yl)-5-methylpiperidin-1-yl)-2-oxoacetamide]	A (“A” indicates an IC50 ratio greater than or equal to 30 fold)	100 to 1000		
> 50	< 5	< 75				CCc1cc(NC(=O)C(=O)N2C[C@@H](C)CC[C@@H]2c2ccc3sc([C@H]4C[C@@H]5CN(C)C[C@@H]5C4)nc3c2)cnc1N (single isomer, unassigned) [Compound 33]	A (“A” indicates an IC50 ratio greater than or equal to 30 fold)	< 100		
5 to 50	< 5	< 75				CCc1cc(NC(=O)C(=O)N2C[C@@H](C)CC[C@@H]2c2ccc3sc(C4CC(C5CN(C)C5)C4)nc3c2)cnc1N (stereo partly drawn) [Compound 100, N-(6-amino-5-ethylpyridin-3-yl)-2-((2R,5S)-5-methyl-2-(2-(3-(1-methylazetidin-3-yl)cyclobutyl)benzo[d]thiazol-5-yl)piperidin-1-yl)-2-oxoacetamide]	B (“B” indicates an IC50 ratio greater than or equal to 15 fold but lower than 30 fold)	< 100		
> 50	< 5	< 75				CCc1cc(NC(=O)C(=O)N2C[C@@H](C)CC[C@@H]2c2ccc3sc([C@H]4C[C@H](N(C)C)C4)nc3c2)cnc1N (single isomer, unassigned) [Compound 43]	A (“A” indicates an IC50 ratio greater than or equal to 30 fold)	< 100		
> 50	5 to 50	> 125				CCc1cc(NC(=O)C(=O)N2C[C@@H](C)CC[C@@H]2c2ccc3c(c2)OC2(CCN(C)CC2)C3)cnc1N [Compound 31, N-(6-amino-5-ethylpyridin-3-yl)-2-((2R,5S)-5-methyl-2-(1′-methyl-3H-spiro[benzofuran-2,4′-piperidin]-6-yl)piperidin-1-yl)-2-oxoacetamide]	A (“A” indicates an IC50 ratio greater than or equal to 30 fold)	100 to 1000		
> 50	< 5	< 75				COc1ncc(NC(=O)C(=O)N2C[C@@H](C)CC[C@@H]2c2ccc3sc([C@H]4CN(C)C(C)(C)C4)nc3c2)cc1C(N)=O [Compound 65, 2-methoxy-5-[[2-oxo-2-[(2R,5S)-5-methyl-2-[2-[(3R)-1,5,5-trimethylpyrrolidin-3-yl]-1,3-benzothiazol-5-yl]-1-piperidyl]acetyl]amino]pyridine-3-carboxamide]	B (“B” indicates an IC50 ratio greater than or equal to 15 fold but lower than 30 fold)	< 100		

SMILES	IC50 ([1]; Homo sapiens, HAP1, 24 h) [nM]	IC50 ([2]; Homo sapiens) [nM]	IC90 ([2]; Homo sapiens) [nM]	IC50 [1] [nM]	IC50 [2] [nM]	IC90 [2] [nM]	Hap1 MTAP intact/deleted ratio [2]	IC50 ([3]; Homo sapiens, 168 h) [nM]	IC50 ([1]; Homo sapiens) [nM]	IC50 [3] [nM]
CCc1cc(NC(=O)C(=O)N2C[C@@H](C)CC[C@@H]2c2ccc3sc([C@@H]4C[C@@H]5CC(F)(F)C[C@H](C4)N5C)nc3c2)cnc1N [Compound 91, N-(6-amino-5-ethylpyridin-3-yl)-2-((2R,5S)-2-(2-(7,7-difluoro-9-methyl-9-azabicyclo[3.3.1]nonan-3-yl)benzo[d]thiazol-5-yl)-5-methylpiperidin-1-yl)-2-oxoacetamide]		< 5	< 75				A (“A” indicates an IC50 ratio greater than or equal to 30 fold)	< 100	> 50	
C[C@H]1CC[C@H](c2ccc3scnc3c2)N(C(=O)C(=O)Nc2cnc(N)c(I)c2)C1 [Compound 51, N-(6-amino-5-iodopyridin-3-yl)-2-((2R,5S)-2-(benzo[d]thiazol-5-yl)-5-methylpiperidin-1-yl)-2-oxoacetamide]		< 5	75 to 125				A (“A” indicates an IC50 ratio greater than or equal to 30 fold)	100 to 1000	> 50	
